According to PubChem BioAssay AID2060895 (Molecular Pharmacology Branch, DTP, NCI, 2025):
pIC50: −log10 of the molar value.

System: PDC 899932-113-R3-J6 complex spheroid viability
Test: Anticancer human tumor 899932-113-R3-J6-PDC patient-derived melanoma cell line growth inhibition [RAS]
Details: for pIC50: curve of first compound; for viability, T/C: stronger effect = lower value
Description: RAS pathway inhibitors in Combinations in Complex Spheroids
A high-throughput screen of multi-cell type tumor spheroids was designed to identify active combinations of RAS pathway inhibitors and targeted small molecules. Complex spheroids include a stromal component modeled by human endothelial cells (HUVEC) and fibroblasts modeled by human mesenchymal stem cells (MSCs). The concentration ranges selected for each drug and investigational agent were based upon clinically achievable concentrations if the clinical Cmax of the agent was known.
Compounds. The drugs and investigational agents: abemaciclib (NSC768073), cobimetinib (NSC768068), divarasib (GDC6063, NSC841802), docetaxel (NSC628503), GDC-1971 (RLY-1971, NSC841576), gemcitabine (NSC613327), inavolisib (NSC800729), ipatasertib (NSC767898), KB-0742 (NSC834161), MRTX-1133 (NSC836407), osimertinib (NSC779217), RMC-4630 (NSC839698), RMC-6236 (NSC851965), RMC-6291 (NSC852671), Ro-3306 (NSC812927), sapanisertib (NSC764658), SN-38 (NSC673596), staurosporine (NSC755774), SY5609 (NSC837396), and tovorafenib (DAY101, NSC766906), were obtained from the National Cancer Institute (NCI) Developmental Therapeutics Program Chemical Repository. The FDA-approved anticancer drug set is available from the NCI Developmental Therapeutics Program. […] The stock solutions were prepared in dimethyl sulfoxide (DMSO, Sigma-Aldrich, St. Louis, MO, cat. D2650) at 800-fold the tested concentration and stored at -70 degrees C prior to their use. All drugs and investigational agents were tested over a range starting from a high concentration at or near the clinical Cmax and decreasing in half-log increments. If the clinical Cmax for an agent had not been determined, the highest concentration tested was 10 microM.
Cell Culture. All cells were maintained in an incubator at 37 degrees C and 5% CO2 with 95% humidity. The PDC lines were cultured according to standard operating procedures established by the NCI PDMR. All PDCs were thawed and cultured in Matrigel-coated flasks prepared with a working solution of 1X Ham's F-12 nutrient mix, without supplementation (Invitrogen, Waltham, MA, cat. 11765054), 100 U/mL penicillin-streptomycin (Invitrogen, cat. 15140122), and 2.5% Matrigel (Corning Inc., Corning, NY, cat. 354248) for the first three passages. The 362531-283-R-J2-PDC and 782815-120-R-J1-PDC lines were cultured in 6C/Colon 1B media, which includes advanced DMEM/F-12 (Thermo Fisher Scientific, cat. 12634028), 10 mM HEPES (Thermo Fisher Scientific, cat. 15630080), 1X GlutaMAX supplement (Thermo Fisher Scientific, cat. 35050061), 0.1 mg/mL primocin (InvivoGen, San Diego, CA, cat. ant-pm-2), 10% defined fetal bovine serum, heat inactivated (HyClone Laboratories Inc., Logan, UT, cat. SH30070.03HI), 50% L-WRN conditioned media (ATCC, cat. CRL-3276), 1.25 mM N-Acetyl-L-cysteine (Sigma-Aldrich, cat. A9165), 10 mM nicotinamide (Sigma-Aldrich, cat. N0636), 1X B-27 supplement (Thermo Fisher Scientific, cat. 17504044), 1X N-2 supplement (Thermo Fisher Scientific, cat. 17502048), 50 ng/mL human EGF (Thermo Fisher Scientific, cat. PHG0311), and 10 microM Y-27632 dihydrochloride (Tocris Bioscience, cat. 1254). The K12877-001-R-J1-PDC line was cultured in 6I media, which includes all 6C/Colon 1B media plus 10 ng/mL human FGF-10 (PeproTech, cat. 100-26), 1 ng/mL human FGF-2 (PeproTech, cat. 100-18B), 1 µM prostaglandin E2 (Tocris Bioscience, cat. 2296), […] hydrocortisone (Sigma-Aldrich, cat. H4001), and […] bovine insulin (Sigma-Aldrich, cat. I6634). The K86415-001-R-J1-PDC line was cultured in 6D media, which includes all 6C/Colon 1B media components minus the L-WRN conditioned media. The 485176-168-R4-J1-PDC was cultured in PANC media, which includes all 6C/Colon 1B media plus 100 ng/mL human FGF-10 (PeproTech, cat. 100-26), 500 nM SB-431542 (Selleckchem, cat. S1067), and 10 nM gastrin (Tocris Bioscience, cat. 3006). […]
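Wherever viability, T/C is given: spheroids exposed to agents for seven days before readout; 100% = DMSO vehicle control wells.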

**Q.** CC(C)NCC(C(=O)N1CCN(c2ncnc3c2C(C)CC3O)CC1)c1ccc(Cl)cc1 (configuration not stated) + C#Cc1c(F)ccc2cc(O)cc(-c3ncc4c(N5CC6CCC(C5)N6)nc(OCC56CCCN5CC(F)C6)nc4c3F)c12 was tested. Which pIC50 (second compound 0.0316 µM) did it give?
**A.** The pIC50 was 5.26.

**Q.** And the pIC50 (second compound 0.1 µM)?
**A.** The pIC50 was 5.24.

**Q.** And the pIC50 (second compound 0.316 µM)?
**A.** Its pIC50 is 5.12.

**Q.** And the pIC50 (second compound 1 µM)?
**A.** Its pIC50 is 5.10.

**Q.** And the pIC50 (second compound 3.16 µM)?
**A.** The pIC50 was 5.07.

**Q.** And the pIC50 (second compound 10 µM)?
**A.** The pIC50 was 5.19.

**Q.** What about the viability, T/C (second compound 0.0316 µM, first compound 0.0316 µM) of the same molecule?
**A.** Its viability, T/C is 99.5%.

**Q.** What about the viability, T/C (second compound 0.0316 µM, first compound 0.1 µM) of the same molecule?
**A.** The viability, T/C was 113%.

**Q.** And the viability, T/C (second compound 0.0316 µM, first compound 0.316 µM)?
**A.** Its viability, T/C is 103%.

**Q.** What about the viability, T/C (second compound 0.0316 µM, first compound 1 µM) of the same molecule?
**A.** Its viability, T/C is 76.9%.

**Q.** What about the viability, T/C (second compound 0.0316 µM, first compound 3.16 µM) of the same molecule?
**A.** Its viability, T/C is 67.4%.

**Q.** And the viability, T/C (second compound 0.0316 µM, first compound 10 µM)?
**A.** The viability, T/C was 34.8%.

**Q.** And the viability, T/C (second compound 0.1 µM, first compound 0.0316 µM)?
**A.** Its viability, T/C is 108%.

**Q.** And the viability, T/C (second compound 0.1 µM, first compound 0.1 µM)?
**A.** Its viability, T/C is 109%.

**Q.** And the viability, T/C (second compound 0.1 µM, first compound 0.316 µM)?
**A.** The viability, T/C was 97.3%.

**Q.** What about the viability, T/C (second compound 0.1 µM, first compound 1 µM) of the same molecule?
**A.** The viability, T/C was 86%.

**Q.** And the viability, T/C (second compound 0.1 µM, first compound 3.16 µM)?
**A.** Its viability, T/C is 68.9%.

**Q.** What about the viability, T/C (second compound 0.1 µM, first compound 10 µM) of the same molecule?
**A.** Its viability, T/C is 34.4%.

**Q.** And the viability, T/C (second compound 0.316 µM, first compound 0.0316 µM)?
**A.** The viability, T/C was 105%.

**Q.** What about the viability, T/C (second compound 0.316 µM, first compound 0.1 µM) of the same molecule?
**A.** Its viability, T/C is 115%.

**Q.** And the viability, T/C (second compound 0.316 µM, first compound 0.316 µM)?
**A.** Its viability, T/C is 93.7%.

**Q.** What about the viability, T/C (second compound 0.316 µM, first compound 1 µM) of the same molecule?
**A.** Its viability, T/C is 99.6%.

**Q.** And the viability, T/C (second compound 0.316 µM, first compound 3.16 µM)?
**A.** The viability, T/C was 72%.

**Q.** What about the viability, T/C (second compound 0.316 µM, first compound 10 µM) of the same molecule?
**A.** Its viability, T/C is 42.5%.

**Q.** And the viability, T/C (second compound 1 µM, first compound 0.0316 µM)?
**A.** Its viability, T/C is 110%.

**Q.** What about the viability, T/C (second compound 1 µM, first compound 0.1 µM) of the same molecule?
**A.** The viability, T/C was 105%.

**Q.** What about the viability, T/C (second compound 1 µM, first compound 0.316 µM) of the same molecule?
**A.** Its viability, T/C is 107%.

**Q.** What about the viability, T/C (second compound 1 µM, first compound 1 µM) of the same molecule?
**A.** The viability, T/C was 94.8%.

**Q.** And the viability, T/C (second compound 1 µM, first compound 3.16 µM)?
**A.** Its viability, T/C is 83.1%.

**Q.** What about the viability, T/C (second compound 1 µM, first compound 10 µM) of the same molecule?
**A.** The viability, T/C was 41.5%.

**Q.** And the viability, T/C (second compound 3.16 µM, first compound 0.0316 µM)?
**A.** The viability, T/C was 110%.

**Q.** What about the viability, T/C (second compound 3.16 µM, first compound 0.1 µM) of the same molecule?
**A.** Its viability, T/C is 120%.

**Q.** What about the viability, T/C (second compound 3.16 µM, first compound 0.316 µM) of the same molecule?
**A.** The viability, T/C was 97.6%.

**Q.** What about the viability, T/C (second compound 3.16 µM, first compound 1 µM) of the same molecule?
**A.** The viability, T/C was 101%.

**Q.** What about the viability, T/C (second compound 3.16 µM, first compound 3.16 µM) of the same molecule?
**A.** The viability, T/C was 80.7%.

**Q.** And the viability, T/C (second compound 3.16 µM, first compound 10 µM)?
**A.** Its viability, T/C is 44.8%.

**Q.** And the viability, T/C (second compound 10 µM, first compound 0.0316 µM)?
**A.** Its viability, T/C is 125%.

**Q.** What about the viability, T/C (second compound 10 µM, first compound 0.1 µM) of the same molecule?
**A.** The viability, T/C was 112%.

**Q.** What about the viability, T/C (second compound 10 µM, first compound 0.316 µM) of the same molecule?
**A.** The viability, T/C was 101%.

**Q.** What about the viability, T/C (second compound 10 µM, first compound 1 µM) of the same molecule?
**A.** Its viability, T/C is 88.5%.

**Q.** And the viability, T/C (second compound 10 µM, first compound 3.16 µM)?
**A.** Its viability, T/C is 79.6%.

**Q.** What about the viability, T/C (second compound 10 µM, first compound 10 µM) of the same molecule?
**A.** Its viability, T/C is 33.7%.
